Measurements as given in ChEMBL document CHEMBL5053539, “THC shows activity against cultured Plasmodium falciparum” (Bioorg Med Chem Lett, 2021).

What was measured:
Plasmodium falciparum [1] = test: Antiplasmodial activity against chloroquine-sensitive Plasmodium falciparum NF54; format: functional, organism-based
Hemozoin = test: Inhibition of Beta-hematin in Plasmodium falciparum cells assessed as hemozoin formation after 32 hrs by NP40 detergent-mediated assay
Plasmodium falciparum [2] = test: Antiplasmodial activity against multidrug-resistant Plasmodium falciparum K1; format: functional, organism-based

| Structure (SMILES) | IC50 (Plasmodium falciparum [1]) | IC50 (Hemozoin) | IC50 (Plasmodium falciparum [2]) |
| --- | --- | --- | --- |
| C=C(C)[C@@H]1CCC(C)=C[C@H]1c1c(O)cc(CCCCC)cc1O [CANNABIDIOL] | 4.1 µM | 51.1 µM | – |
| CCN(CC)CCCC(C)Nc1ccnc2cc(Cl)ccc12 (stereo unspecified) [CHLOROQUINE] | – | 16.8 µM | – |
| CCCCCc1cc(O)c2c(c1)OC(C)(C)[C@@H]1CCC(C)=C[C@@H]21 [DRONABINOL] | 0.79 µM | 11.3 µM | 0.72 µM |
